# Key:
# Test in all cases: pTyr-Var library bacterial peptide display kinase screen (enrichment scores)
# c-Src kinase domain = c-Src kinase domain (Homo sapiens, UniProt P12931); assay type: biochemical; settings: sheet "Src";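 further: log2 fold change in enrichment of variant over reference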
# Fer kinase domain = assay type: biochemical, mouse; settings: sheet "Fer"
# EPHB1 kinase domain = assay type: biochemical, human; settings: for Screen: sheet EPHB1, effect of the variant peptide relative to its reference peptide in the pTyr-Var library screen (enrichment scores); for Screen (variant relative to reference peptide, measured in the pTyr-Var library screen): sheet "EPHB1", variant seq vs reference seq, bacterial peptide display enrichment
# EPHB2 kinase domain = assay type: biochemical, human; settings: sheet EPHB2
# c-Abl kinase domain = target: T1, c-Abl kinase domain (Mus musculus, UniProt P00520); assay type: biochemical; settings: sheet "Abl"; effect of variant peptide relative to its reference peptide in pTyr-Var library screen (enrichment);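 further: log2 fold change in enrichment of variant over reference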
# T1 sequence (P00520 242-493 limits assumed): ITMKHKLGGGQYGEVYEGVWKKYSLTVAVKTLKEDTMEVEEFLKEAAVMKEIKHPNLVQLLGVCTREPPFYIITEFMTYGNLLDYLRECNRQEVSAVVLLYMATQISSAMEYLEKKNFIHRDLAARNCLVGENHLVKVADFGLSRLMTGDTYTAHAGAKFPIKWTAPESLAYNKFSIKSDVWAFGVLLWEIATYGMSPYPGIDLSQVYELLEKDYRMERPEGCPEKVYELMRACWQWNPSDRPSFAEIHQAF
# [1] = effect of the variant peptide relative to its reference peptide in the pTyr-Var library screen
# [2] = value of the variant peptide against its reference peptide in the pTyr-Var library screen with Fer
# [3] = effect of variant peptide relative to its reference peptide in the pTyr-Var library screen (enrichment scores)
# [4] = variant peptide versus its reference peptide in the pTyr-Var library screen
# [5] = variant peptide relative to its reference peptide, pTyr-Var library screen enrichment
# [6] = effect of the variant relative to its reference peptide in the pTyr-Var library screen
Sequence,Screen (c-Src kinase domain; [1]),Screen (Fer kinase domain; [2]),Screen (EPHB1 kinase domain),Screen (EPHB2 kinase domain; [3]),Screen (c-Src kinase domain; [4]),Screen (c-Abl kinase domain),"Screen (variant relative to reference peptide, measured in the pTyr-Var library screen) (EPHB1 kinase domain)",Screen (Fer kinase domain; [5]),Screen (EPHB2 kinase domain; [6])
ASTHIYQIMNH [ITK_Y588_V587I],0.7541,2.332,3.124,2.415,,,,,
AVISVYDLVVV [PSEN1_Y256_A260V],,0.009469,-0.1318,-0.3059,-0.2228,,,,
EFHRLYEEFTR [PIK3R1_Y467_D464H_YF],,-0.6972,0.6076,-0.0373,0.07006,,,,
FAELVYTSFWH [ASS1_Y322_G324S],-0.03781,0.3535,0.4613,0.4289,,,,,
FTDPFYDFEIE [ZC3H18_Y372_A368T_YF],,,,,0.548,2.472,0.9547,,
GTSLIYWILFT [G6PC3_Y214_T216I],-1.381,-1.528,-1.942,-1.51,,,,,
HNLDFYKETTN [FGFR3_Y648_K650E_YF],-1.013,-1.533,-0.9671,-1.243,,,,,
ITNVLYHVVGW [GBA_Y412_L410V],-0.5492,-0.5496,-1.243,-1.361,,,,,
KAWGIYDCQQP [CYP3A7_Y75_V71A],0.09779,0.5201,0.3477,0.8548,,,,,
KSRQIYDAFIM [GRK3_Y109_R104K_YF],0.6859,0.5964,0.9818,1.299,,,,,
LTFHMYADPNI [SOS1_Y618_F623I_YF],,,,0.3507,,,0.02693,,
LVTCSYLLGNS [LMNA_Y646_R644C],,,,1.308,,,,,
MENFIYESMQF [CYP19A1_Y361_R365Q_YF],0.1198,0.2137,0.9498,1.167,,,,,
MSRFIYSTDFF [NTRK1_Y676_D674Y_YF],,-0.8782,-1.34,-1.706,-0.3372,,,,
MTFQNYRQALF [FAM20C_Y279_G280R],,,,-1.483,,,,,
NDFGNYSNQSS [HNRNPA1_Y318_N319S],,,4.118,2.422,,,,,
NREGVYTVSAP [TGFBI_Y537_F540S],,,,-1.97,-0.08291,,-2.126,-3.034,
NVKGIYAVADV [GSR_Y371_G374A],-0.2612,1.853,1.714,2.725,,,,,
PANMVYSTVEI [SLAMF7_Y304_T302M],,,,0.9599,0.01938,,0.5023,-0.2345,
QMVGMYASFFM [AVPR2_Y124_S127F_YF],2.334,2.583,1.725,1.338,,,,,
RIGRKYKRVRF [F8_Y442_K444R],3.277,,,1.084,,,,,
RNFGTYTAGLS [RHBDD1_Y264_D262G_YF],,,-2.368,-2.902,,,,,
RQQQDYWLKDV [ANPEP_Y600_I603K],,-2.803,-4.233,-3.253,,,,,
RVLQLYGCSPS [ASTL_Y279_K277Q],,,,1.225,,,,,
SQINLYQDVML [ZNF806_Y33_A28S],,,,,,,-0.1927,-0.1473,-0.4727
SVVVLYEPPEV [TP53_Y220_P219L],,,,,,,3.168,3.283,4.006
VDGSLYETHPQ [HK1_Y417_K418E],,4.441,1.816,2.555,,,,,
